These results are taken from patent publication EP4548971A1, “1,4-BENZOTHIAZEPINES AND RELATED COMPOUNDS WITH CYCLOPROPANOL GROUPS AS MULTI-TARGETED DRUGS” (Georg-August-Universität Göttingen Stiftung Öffentlichen …, priority 2023, dated 2025).

“Also recorded” adds a separate entry of the source.

In one data set the target is T1, SERCA2a (Mus musculus, UniProt O55143).
T1 construct: host or cells: HL-1 cardiac cells
Briefly: Caffeine-induced Ca2+ release assay on HL-1 cells. Further details: key to SERCA2a HL-1 effect class: +++: a strong effect, comparable to or greater than that of a known compounds at a given concentration (25 µM in RyR2 R-CEPIA1er assay, 10 µM in caffeine assay and on microsomal membrane vesicles); ++: moderate effect; +: observable effect; -: no effect. It is filed as cell-based. Here is the method: HL-1 cardiac cells (SCC065, Merck KGaA, Darmstadt, Germany) were cultivated in Claycomb's Medium (51800C, Merck KGaA, Darmstadt, Germany), supplemented with Glutamax, 10% fetal bovine serum, 0.9% Penicillin/Streptomycin and 0.1 mM Noradrenaline (Merck KGaA, Darmstadt, Germany) on fibronectin/gelatin (Merck KGaA, Darmstadt, Germany) coated culture bottles or plates two days before plating.
HL-1 cardiac cells (50000 per well) were cultivated for 24 h in black-walled, clear-bottom 96-well micro-plates (Corning, Amsterdam, The Netherlands) covered with fibronectin/gelatin (Merck KGaA, Darmstadt, Germany) in a humidified incubator at 37 °C and 5% CO2.
Changes in Ca^2+ concentration were measured on a multiwell plate reader TECAN Spark 20M using FLIPR 6 Calcium Assay Kit from Molecular Devices (Molecular Devices LLC, München, Germany) at 37 °C. The 1000 × stock solutions of the test compounds were prepared in DMSO. 100 µl solution of test compound in Tyrode's solution containing FLIPR Calcium 6 dye was incubated for 2 hours at 37°C and 5% COz in a humidified incubator. The time courses were recorded in each well. Fluorescence was evoked at 485 nm excitation wavelength and read out in a bottom-read mode at 525 nm. Data were recorded every 2 s, exposure - 20 flashes, excitation bandwidth - 10 nm, emission bandwidth - 15 nm. To initiate Ca^2+ influx, 25 µl of 50 mM caffeine solution in Tyrode's solution containing 2 mM CaCl2 was injected in each well (speed 100 µl/s) at 10 s time point, resulting in 10 mM final concentration in the well. The differences between the caffeine induced peak minus basal fluorescence, ΔFCaff, were taken for the analysis. The Tyrode's solution + 0.1 v/v% DMSO was used as a control. The dose response curves were calculated using the software package GraphPad Prism version 8.3.1. All data are presented as mean ± S.D. from 8 independent experiments. Y=Bottom + (Top-Bottom)/(1+10^((LogEC50-X)*HillSlope)) was used where HillSlope describes the steepness of the curve, Top and Bottom are plateaus in the units of the Y axis.
The SERCA2a activity of the compounds was confirmed in two orthogonal biochemical assays: caffeine-induced Ca^2+ release assay and nicotinamide adenine dinucleotide (NADH) assay on microsomal membrane vesicles from mouse heart ventricles (mouse SER) and HEK-293T cells (HEK-293 ER). The effect of caffeine-induced Ca^2+ release in HL-1 cells, immortalized mouse cardiomyocytes, treated with the cytosolic Ca^2+ indicator FLIPR Calcium 6 (Molecular Devices) was investigated.
When caffeine binds to the RyR channel, it interacts with specific amino acids of the protein, and this interaction causes conformational changes in the protein's structure [A. des Georges, O. B. Clarke, R. Zalk, Q. Yuan, K. J. Condon, R. A. Grassucci, W. A. Hendrickson, A. R. Marks, J. Frank, Structural Basis for Gating and Activation of RyR1. Cell 2016, 167, 145 - 157.e17]. This opens the RyR2 channel pore, enabling the mass release of calcium ions from the SER Ca^2+ store.

Another data set concerns HL-1 cardiac cells. In words: CytoTox-Glo cytotoxicity assay (cell viability). It is filed as cell-based. Particulars: CytoTox-Glo assay in 100 µM solutions after 24 h incubation. As to the method:
Cell viability was assessed using CytoTox-Glo™ Cytotoxicity Assay according to the manufacturing procedure (Promega GmbH). Briefly, HL-1 cardiac cells were cultivated for 24 h in black-walled, clear-bottom 96-well micro-plates (Corning) covered with fibronectin in DMEM, containing different concentrations of the tested compound (10,000 cells/well). Luminescence of a luminogenic peptide substrate was measured before and after addition of the lysis reagent (digitonin). The viable cell contribution was determined by a subtractive method. 0.1% DMSO treated cell were taken as a control.
(§1) The membrane permeability of the derivatives was determined using cell-free transport models (PermeaPad®, innoME GmbH), and permeability rates (Pe), which are a measure of how fast a compound can cross a membrane, were established (Table 1).

The nature of data set [1]: Membrane permeability, PermeaPad plate (cell-free transport model). It is filed as in vitro ADME. As to the method: Membrane permeability was assessed using PermeaPad® Plate according to the manufacturing procedure (innoME GmbH, Espelkamp, Germany). Briefly, 200 µl water was added into acceptor plate. 200 µl of 100 - 500 µM test compound in water was added directly to the well membranes of the donor plate. The donor plate contains a biomimetic membrane for simulating passive mass transfer through different barriers in the body. Then the donor plate was placed into the acceptor plate wells and incubated at room temperature for 24 hours in dark. To determine peak absorbance of test compounds, absorbance spectra of acceptor solutions and initial solutions for each test compound were read out. The Permeability Rate (Pe) was calculated using the formula: Pe = C × −ln(1−(ODA)/(ODE)) cm/s, [formula]
where ODA is the absorbance of acceptor solution, ODE is the absorbance of the standard solution; if the compound is able to permeabilize the membrane and fully reach equilibrium, 250 µM will be the final concentration of solution in the donor and acceptor wells. The coefficient C was calculated using the formula: C = (VD × VA)/((VD+VA) × Area × time), [formula] where VA - acceptor volume (cm^3), VD - donor volume (cm^3), membrane area 0.24 cm^2, time is 86,400 s.
as §1

T1 sequence (O55143 1-998 isoform O55143-2): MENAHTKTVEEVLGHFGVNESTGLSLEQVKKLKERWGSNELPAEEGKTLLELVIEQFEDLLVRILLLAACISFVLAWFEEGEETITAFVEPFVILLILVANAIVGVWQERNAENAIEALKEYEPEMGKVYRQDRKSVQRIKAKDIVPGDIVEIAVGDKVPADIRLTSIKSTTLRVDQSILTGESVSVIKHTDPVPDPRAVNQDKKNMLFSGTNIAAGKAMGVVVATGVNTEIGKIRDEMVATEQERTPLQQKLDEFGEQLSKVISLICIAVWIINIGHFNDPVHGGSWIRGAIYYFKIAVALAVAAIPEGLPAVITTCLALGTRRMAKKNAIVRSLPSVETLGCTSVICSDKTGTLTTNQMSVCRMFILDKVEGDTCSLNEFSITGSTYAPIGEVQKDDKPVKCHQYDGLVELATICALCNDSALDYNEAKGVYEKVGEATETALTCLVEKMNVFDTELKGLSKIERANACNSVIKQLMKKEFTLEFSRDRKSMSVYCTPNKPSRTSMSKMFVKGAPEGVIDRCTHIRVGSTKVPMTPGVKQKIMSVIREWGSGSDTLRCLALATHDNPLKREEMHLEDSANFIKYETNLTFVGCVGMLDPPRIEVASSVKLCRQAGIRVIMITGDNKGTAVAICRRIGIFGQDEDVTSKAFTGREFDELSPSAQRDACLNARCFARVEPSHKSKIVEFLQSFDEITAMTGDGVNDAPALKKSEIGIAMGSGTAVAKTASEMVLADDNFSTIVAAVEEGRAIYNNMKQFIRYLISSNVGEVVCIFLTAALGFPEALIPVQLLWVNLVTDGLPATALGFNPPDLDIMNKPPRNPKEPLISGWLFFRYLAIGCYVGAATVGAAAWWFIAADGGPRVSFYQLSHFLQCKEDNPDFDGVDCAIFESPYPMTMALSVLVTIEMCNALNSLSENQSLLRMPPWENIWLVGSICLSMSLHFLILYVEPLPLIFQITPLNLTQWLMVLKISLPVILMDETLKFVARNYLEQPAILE

Turning to `COc1ccc2c(c1)CN(C)CCS2` [Compound S107, reference compound], the “SERCA2a HL-1 effect class” value on SERCA2a (10 µM in caffeine assay) was “-”. In addition, on SERCA2a (HL-1 cells incubated 2 h with compound, 10 mM caffeine), the “effect in caffeine-induced Ca^2+ release assay, in words” value is reported as “no concentration dependent effect; also recorded: didn't show any effects on SR Ca^2+ content”. In the data set with HL-1 cardiac cells, this molecule displayed a Viability of 98%. Besides, the “Pe rating in words (low / medium / high; poor)” value in data set [1] is reported as “medium”. For the same molecule, in data set [1] (permeability rate, room temperature, 24 hours), the Pe was 1.2 10^-6 cm/s.
